Paper PMC6881293, “Nanomolar-potency ‘co-potentiator’ therapy for cystic fibrosis caused by a defined subset of minimal function CFTR mutants” (Scientific Reports, 2019)

Assays:
M1101K-CFTR = molecular target: T1, M1101K-CFTR (Homo sapiens, UniProt P13569, M1101K); assay: Short-circuit current in FRT cells expressing M1101K-CFTR; format: cell-based; details: 20 μM forskolin, 5 µM VX-770, 20 µM ASP-11
T1 construct: expressed in transfected cells; host or cells: Fischer rat thyroid (FRT) cells; gift from Drs; Andras Rab and Jeong Hong (Emory University)
T1 sequence (P13569 whole entry M1101K): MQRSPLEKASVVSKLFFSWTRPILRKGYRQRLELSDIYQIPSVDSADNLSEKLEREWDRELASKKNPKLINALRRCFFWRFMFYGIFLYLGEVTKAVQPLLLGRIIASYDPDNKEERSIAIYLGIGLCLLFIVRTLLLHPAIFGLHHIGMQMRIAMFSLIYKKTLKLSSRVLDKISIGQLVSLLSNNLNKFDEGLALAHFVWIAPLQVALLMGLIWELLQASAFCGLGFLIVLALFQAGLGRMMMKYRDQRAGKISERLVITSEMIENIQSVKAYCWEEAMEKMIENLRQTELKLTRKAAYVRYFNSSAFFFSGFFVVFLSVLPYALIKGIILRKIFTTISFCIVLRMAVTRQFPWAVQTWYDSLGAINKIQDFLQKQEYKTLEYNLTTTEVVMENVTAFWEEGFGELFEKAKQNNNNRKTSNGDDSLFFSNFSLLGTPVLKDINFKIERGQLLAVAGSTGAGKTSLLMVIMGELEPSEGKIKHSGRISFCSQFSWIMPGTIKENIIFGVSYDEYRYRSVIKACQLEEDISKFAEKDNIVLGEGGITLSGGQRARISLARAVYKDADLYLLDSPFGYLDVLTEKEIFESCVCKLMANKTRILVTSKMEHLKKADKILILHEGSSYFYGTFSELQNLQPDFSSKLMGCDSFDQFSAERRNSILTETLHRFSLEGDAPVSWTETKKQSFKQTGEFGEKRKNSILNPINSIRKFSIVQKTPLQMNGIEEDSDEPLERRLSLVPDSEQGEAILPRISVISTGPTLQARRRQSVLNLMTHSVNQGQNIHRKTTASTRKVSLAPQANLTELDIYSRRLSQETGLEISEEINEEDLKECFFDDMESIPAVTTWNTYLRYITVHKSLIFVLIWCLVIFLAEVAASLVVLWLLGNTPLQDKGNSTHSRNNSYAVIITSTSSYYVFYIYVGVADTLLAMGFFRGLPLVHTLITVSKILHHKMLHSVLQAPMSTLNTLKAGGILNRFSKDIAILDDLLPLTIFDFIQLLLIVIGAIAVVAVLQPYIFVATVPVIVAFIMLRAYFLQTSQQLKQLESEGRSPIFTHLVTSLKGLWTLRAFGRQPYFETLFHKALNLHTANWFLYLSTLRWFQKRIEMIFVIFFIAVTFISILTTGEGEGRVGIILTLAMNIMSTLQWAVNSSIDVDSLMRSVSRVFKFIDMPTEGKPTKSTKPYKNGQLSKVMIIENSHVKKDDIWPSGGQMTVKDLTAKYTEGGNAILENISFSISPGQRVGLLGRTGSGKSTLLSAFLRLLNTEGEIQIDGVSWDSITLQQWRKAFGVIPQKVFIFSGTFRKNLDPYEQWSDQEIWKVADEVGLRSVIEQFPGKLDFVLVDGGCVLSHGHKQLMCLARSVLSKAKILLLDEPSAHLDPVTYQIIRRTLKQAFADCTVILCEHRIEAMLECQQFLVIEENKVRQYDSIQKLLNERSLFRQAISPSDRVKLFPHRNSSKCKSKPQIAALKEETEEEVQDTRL
Experimental: (§1) As shown in Fig. 1C and summarized in Fig. 2, ASP-11 acted in synergy with VX-770 to increase chloride current in FRT cells expressing the NBD2 mutations I1234del- and Q1313X-CFTR by ~3–9-fold compared to VX-770. I1234del- and Q1313X-CFTR-expressing cells were also treated with VX-809 for 24 hours (to consider the effect of available CFTR therapeutics) with 2–3-fold greater currents observed.
(§2) Figure 2 Summary of short-circuit current responses to modulators for CFTR mutants in transfected FRT cells. Responses to indicated CFTR mutants with 20 μM forskolin, 5 µM VX-770, 20 µM ASP-11 (with or without 3 µM VX-809 overnight). For reference, data shown for cells expressing wild type CFTR. Mean ± S.E.M., n = 3.
(§3) Short-circuit current was measured on cells cultured on Snapwell clear permeable supports (Corning) as described[10],[11]. Hemichambers were connected to a DVC-1000 voltage clamp (World Precision Instruments Inc., Sarasota, FL) via Ag/AgCl electrodes and 3 M KCl agar bridges for recording of the short-circuit current. For human airway epithelial cells, symmetrical HCO3^−-buffered solutions (in mM: 120 NaCl, 5 KCl, 1 MgCl2, 1 CaCl2, 5 Hepes, 25 NaHCO3, 10 glucose, pH 7.4) for basolateral and apical side were used. […]

R334W-CFTR = molecular target: T2, R334W-CFTR (Homo sapiens, UniProt P13569, R334W); assay: Short-circuit current in FRT cells expressing R334W-CFTR; format: cell-based; details: 20 μM forskolin, 5 µM VX-770, 20 µM ASP-11
T2 construct: expressed in transfected cells; host or cells: Fischer rat thyroid (FRT) cells; gift from Drs; Andras Rab and Jeong Hong (Emory University)
T2 sequence (P13569 whole entry R334W): as the sequence (P13569 whole entry M1101K) above, with R334W, K1101M counted along it
Experimental: as §1, §2, §3

V520F-CFTR = molecular target: T3, V520F-CFTR (Homo sapiens, UniProt P13569, V520F); assay: Short-circuit current in FRT cells expressing V520F-CFTR; format: cell-based; details: 20 μM forskolin, 5 µM VX-770, 20 µM ASP-11
T3 construct: expressed in transfected cells; host or cells: Fischer rat thyroid (FRT) cells; gift from Drs; Andras Rab and Jeong Hong (Emory University)
T3 sequence (P13569 whole entry V520F): as the sequence (P13569 whole entry M1101K) above, with V520F, K1101M counted along it
Experimental: as §1, §2, §3

G551D-CFTR = system: G551D-CFTR; design: method as in PMID 29903467; details: previously showed; cited from earlier work
N1303K-CFTR [1] = molecular target: T4, N1303K-CFTR (Homo sapiens, UniProt P13569, N1303K); design: method as in PMID 27895116, PMID 29903467; details: transfected FRT cells expressing N1303K-CFTR; cited from earlier work
T4 construct: expressed in transfected cells
T4 sequence (P13569 whole entry N1303K): as the sequence (P13569 whole entry M1101K) above, with K1101M, N1303K counted along it

N1303K-CFTR [2] = molecular target: T4, N1303K-CFTR; assay: Short-circuit current in gene-edited 16HBE14o- cells expressing N1303K-CFTR (16HBE-N1303Kge); format: cell-based; details: 16HBE-N1303Kge cells; 20 µM compound after 20 µM forskolin and 5 µM VX-770
Experimental: (§4) To test the efficacy of new co-potentiators in human airway cell models, short-circuit current was measured in 16HBE14o- human airway epithelial cells in which the endogenous CFTR gene was edited to contain the N1303K mutation (16HBE-N1303Kge[21]) and in primary cultures of human bronchial epithelial cells from a N1303K homozygous CF subject. Addition of forskolin and then VX-770 to 16HBE-N1303Kge cells gave a limited response (Fig. 6A). Subsequent addition of CP-A061 or CP-D123 produced CFTRinh-172-inhibitable responses of ~10 μA/cm^2, ~6-fold greater that that produced by VX-770 alone. Increased short-circuit current was also found for these co-potentiators in the primary human bronchial epithelial cell cultures (Fig. 6B).
(§5) Figure 6 N1303K-CFTR activity in human airway epithelial cell cultures. (A) Short-circuit current in gene-edited 16HBE14o- cells expressing N1303K-CFTR. Concentrations: 20 µM amiloride, 20 µM forskolin, 5 µM VX-770, 20 µM CP-A061 and CP-D123, and 10 µM CFTRinh-172. Representative original curves (left and center) and summary of changes in current (∆Isc) (right). Mean ± S.E.M., n = 3, *P < 0.05). (B) Short-circuit current in primary cultures of human bronchial epithelial cells from a homozygous N1303K-CFTR CF subject. […]
(§6) Short-circuit current was measured on cells cultured on Snapwell clear permeable supports (Corning) as described[10],[11]. […]

N1303K-CFTR [3] = molecular target: T4, N1303K-CFTR; assay: Short-circuit current in primary human bronchial epithelial cell cultures from a N1303K homozygous CF subject; format: cell-based
Experimental: as §4, §5, §6

N1303K-CFTR [4] = molecular target: T4, N1303K-CFTR; design: method as in PMID 30046002; details: prior studies; cited from earlier work

Compound: CCCCn1cc(S(=O)(=O)Nc2ccc(CC)cc2)c2cccnc21 [ASP-11]
- ASP-11 effect on short-circuit current (M1101K-CFTR): absence of ASP-11 effect
- ASP-11 effect on short-circuit current (R334W-CFTR): absence of ASP-11 effect
- ASP-11 effect on short-circuit current (V520F-CFTR): absence of ASP-11 effect
- activation of G551D-CFTR (G551D-CFTR): activates G551D-CFTR
- increase in chloride current over that produced by a high concentration of VX-770 (N1303K-CFTR [1]): ~ 8 fold

Compound: COc1ccc2[nH]c3c(c2c1)CCNC31CCN(Cc2ccc(F)cc2F)CC1 [Compound A061]
- CFTRinh-172-inhibitable short-circuit current response (N1303K-CFTR [2]): ~ 10 μA/cm^2
- response relative to that produced by VX-770 alone (N1303K-CFTR [2]): ~ 6 fold
- current as equivalent of wildtype CFTR activity (N1303K-CFTR [3]; estimate based on similarly cultured non-CF and CF human airway epithelial cell cultures): ~ 20%
- CFTRinh-172-inhibitable current (N1303K-CFTR [3]; primary human bronchial cell cultures, homozygous N1303K-CFTR subject, 20 µM compound after forskolin and 5 µM VX-770): ~ 2.5 μA/cm^2

Compound: CC(C)(C)c1cc(C(C)(C)C)c(NC(=O)c2c[nH]c3ccccc3c2=O)cc1O [VX-770, ivacaftor]
- response of N1303K-CFTR to modulator (N1303K-CFTR [4]): not responsive
